Measurements as given in paper PMC9640990 (Frontiers in Pharmacology, 2022).
Where two headings read alike, the source gives them in different places.

Columns and labels:
hMDR1 = biological target: T1, hMDR1 (Homo sapiens, UniProt P08183); experiment: hMDR1-mediated efflux of rhodamine 123 in hMDR1-MDCK cells; assay type: cell-based; conditions: for efflux of MDR1-mediated rhodamine 123: concentration range 0.3 to 30 µM; for inhibitory effect on MDR1 activity: hMDR1-MDCK cells, co-incubation 0.3 to 30 µM
T1 construct: host or cells: MDCK
T1 sequence (P08183 whole entry): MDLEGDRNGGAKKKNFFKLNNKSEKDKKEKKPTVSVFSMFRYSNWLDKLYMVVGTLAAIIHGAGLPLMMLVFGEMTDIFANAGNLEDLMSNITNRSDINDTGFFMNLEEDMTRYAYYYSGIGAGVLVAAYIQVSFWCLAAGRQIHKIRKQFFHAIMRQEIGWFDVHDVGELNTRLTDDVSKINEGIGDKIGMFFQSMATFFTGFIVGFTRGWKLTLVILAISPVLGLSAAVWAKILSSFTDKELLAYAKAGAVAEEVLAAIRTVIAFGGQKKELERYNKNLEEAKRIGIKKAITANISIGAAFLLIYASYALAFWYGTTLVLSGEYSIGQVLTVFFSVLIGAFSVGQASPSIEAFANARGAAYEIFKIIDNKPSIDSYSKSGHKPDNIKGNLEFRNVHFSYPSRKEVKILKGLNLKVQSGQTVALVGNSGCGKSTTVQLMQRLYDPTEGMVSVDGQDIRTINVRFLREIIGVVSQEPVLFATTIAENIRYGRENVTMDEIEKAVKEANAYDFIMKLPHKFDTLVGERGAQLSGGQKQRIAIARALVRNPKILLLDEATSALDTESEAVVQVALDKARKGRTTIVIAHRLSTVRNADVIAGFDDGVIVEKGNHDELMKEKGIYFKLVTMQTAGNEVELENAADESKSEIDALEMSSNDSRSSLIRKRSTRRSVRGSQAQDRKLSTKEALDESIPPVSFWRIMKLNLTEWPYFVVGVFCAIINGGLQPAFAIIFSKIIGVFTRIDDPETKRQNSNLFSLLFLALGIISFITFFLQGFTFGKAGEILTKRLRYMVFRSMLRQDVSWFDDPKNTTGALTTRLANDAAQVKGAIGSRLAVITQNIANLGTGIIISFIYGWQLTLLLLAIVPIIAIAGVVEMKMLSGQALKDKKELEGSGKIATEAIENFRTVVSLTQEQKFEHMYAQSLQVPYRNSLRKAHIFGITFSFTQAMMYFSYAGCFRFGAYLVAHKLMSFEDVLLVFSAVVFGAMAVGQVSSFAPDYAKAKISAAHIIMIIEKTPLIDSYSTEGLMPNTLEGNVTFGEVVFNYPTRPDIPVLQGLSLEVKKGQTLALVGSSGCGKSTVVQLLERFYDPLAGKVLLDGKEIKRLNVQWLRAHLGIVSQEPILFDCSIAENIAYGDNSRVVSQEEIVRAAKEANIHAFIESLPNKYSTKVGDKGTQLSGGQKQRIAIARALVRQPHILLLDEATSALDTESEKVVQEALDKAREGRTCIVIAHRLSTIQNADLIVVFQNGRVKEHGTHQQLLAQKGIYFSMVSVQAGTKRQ

[1] = system: Staphylococcus aureus and Escherichia coli; parameters: method as in Fifere et al., 2022; conditions: in vitro, especially that of levofloxacin; ref Fifere et al., 2022; cited from earlier work
MDR1 mRNA = MDR1 mRNA expression in Caco-2 cells (qRT-PCR); assay type: cell-based; conditions: 48 h pretreatment, bosentan 20 μM, GA 50 μM, PCA 50 μM, PCE 100 mg/ml
Description: (§1) After the incubation period, cells were harvested from the Transwell inserts for RNA extraction. […] Real-time quantitative PCR (qRT-PCR) was performed on an ABI Prism 7900HT Sequence Detection System (Applied Biosystems, Foster City, CA, United States) for the analysis of MDR1 and BCRP genes. Primers of housekeeping gene β-actin was used as internal controls. […] The relative gene expression levels were determined using the comparative CT method (ΔΔCT method). The cut-off CT was set at 35 cycles for all analyses. An arbitrary classification system was assigned to the data, designating relative expression levels >2 as high mRNA expression, levels between 2 and 1 as moderate mRNA expression, levels between 1 and 0.1 as low mRNA expression and levels <0.1 as unexpressed.

clinical = conditions: male, human; for Cmax: C max; for Vd/F: V z/F; for k el: k e
Caco-2 cells = experiment: Bidirectional transport of ciprofloxacin in Caco-2 cells; assay type: in vitro ADME; conditions: GA 50 μM, PCA 50 μM, PCE 100 mg/ml, p < 0.05
Description: The Caco-2 cell lines were obtained from the National Collection of Authenticated Cell Cultures (NCACC, Shanghai, China). The bi-directional transport assay was performed on 12-mm Transwell Permeable Supports with 0.4 mm-pore polycarbonate membrane insert and 1.12 cm^2 growth areas. […] The cells were seeded at a density of 3×10^5 cells/well, incubated at 37°C and 5% CO2, and cultured for 21 days with replacement of cell culture medium supplemented with 1% penicillin-streptomycin every second day. Membrane filters were placed in a 12 mm well with 1.5 and 0.5 ml of culture medium in the basolateral and apical compartments, respectively. TEER was measured as an indication of an intact monolayer using a Millicell ERS voltohmmeter (Millipore, Merck). […] Aliquots of 50 μl were collected from the acceptor compartment at 0.5 h. The apparent permeability coefficient (P app) was calculated using the following formula: P app = (dC/dt) × V r/(A × C 0), where dC/dt is the alteration in concentration over time, V r is the volume of the receiver compartment, A is the area of the cell monolayer, and C 0 is the initial concentration in the donor compartment. The permeation of drug from the apical (A) to the basolateral (B) side of the cells (P app,A-B) is compared with the permeation in the opposite direction (P app,B-A).

BCRP mRNA = BCRP mRNA expression in Caco-2 cells (qRT-PCR); assay type: cell-based; conditions: 48 h pretreatment, bosentan 20 μM, GA 50 μM, PCA 50 μM, PCE 100 mg/ml
Description: as §1

[2] = not given; remark: listed apart in the source
hOCT2 = biological target: T2, hOCT2 (Homo sapiens, UniProt O15244); experiment: Inhibition of hOCT2-mediated uptake of 14C-TEA in hOCT2-S2 cells; assay type: cell-based; conditions: 14C-TEA 5 µM
T2 construct: host or cells: S2
T2 sequence (O15244 1-555): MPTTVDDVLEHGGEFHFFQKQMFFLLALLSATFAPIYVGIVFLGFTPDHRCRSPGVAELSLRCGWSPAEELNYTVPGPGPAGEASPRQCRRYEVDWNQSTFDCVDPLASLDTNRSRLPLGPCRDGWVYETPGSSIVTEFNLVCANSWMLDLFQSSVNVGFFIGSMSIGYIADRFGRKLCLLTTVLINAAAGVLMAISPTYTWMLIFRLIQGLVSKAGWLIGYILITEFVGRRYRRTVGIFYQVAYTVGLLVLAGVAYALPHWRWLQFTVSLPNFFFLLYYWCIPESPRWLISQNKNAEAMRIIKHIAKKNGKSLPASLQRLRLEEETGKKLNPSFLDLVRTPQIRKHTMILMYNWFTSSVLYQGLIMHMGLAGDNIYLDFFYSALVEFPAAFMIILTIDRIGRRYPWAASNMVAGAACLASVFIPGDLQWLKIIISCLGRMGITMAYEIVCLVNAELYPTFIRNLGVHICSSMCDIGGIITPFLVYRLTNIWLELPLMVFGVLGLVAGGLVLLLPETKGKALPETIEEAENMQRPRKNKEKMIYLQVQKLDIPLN
Source text: Considering the relative exposure characteristics, GA and PCA were selected as PK-marker and Q-marker components of PCE in previous studies ([Ma et al., 2015]; [Ma et al., 2016]; [Li et al., 2021b]). In this study, we investigated the concentration-dependent inhibitions of GA and PCA on multiple transporters, including OAT1, OAT3, OCT2, MDR1, and BCRP. Stably expressing cell lines of hOAT1-MDCK, hOAT3-MDCK, hOCT2-S2, hMDR1-MDCK, hBCRP-MDCK, and their mock cells were obtained from Japan Fuji Biomedical Co., Ltd. The cells were maintained in DMEM (Sigma) supplemented with 10% FCS, 1% non-essential amino acids (Sigma), and 2% L-glutamine. The medium for the Transwell® plates (Corning Costar, Cambridge, MA, United States) was supplemented with 0.1% gentamicin. […]
Briefly, the hOAT1-MDCK, hOAT3-MDCK, and hOCT2-S2 cells were trypsinized and suspended in the culture medium to provide a density of 1.5 × 10^5 cells/ml. […] The radioactive intensity of ^14C-PAH, ^3H-ES, and ^14C-TEA was measured using a Tri-Carb 2910TR scintillator (PerkinElmer, United States). Fluorescence was measured at 485 nm (excitation) and 546 nm (emission) for rhodamine 123, and 425 nm (excitation) and 528 nm (emission) for lucifer yellow. IC50 values were determined by employing GraphPad Prism 9.

[3] = plasma, oral, plasma PK-marker, human subjects, multiple doses of PCE (8 g, TID, seven days) + CIP 0.5 g
[4] = plasma, oral, plasma PK-marker, human subjects, single dose of PCE (8 g) + CIP 0.5 g
[5] = plasma, po, plasma PK-marker, human subjects, oral single dose of PCE (8 g) alone
[6] = plasma PK-marker, human subjects, oral single dose of PCE (8 g) alone

O=C(O)c1ccc(O)c(O)c1 [PCA, protocatechuic acid]
CL/F (plasma PK-marker, rats, intragastric PCE 0.72 g/kg + CIP […]): 6.67 ± 1.54 L/h | CL/F (plasma PK-marker, rats, intragastric PCE 0.72 g/kg alone): 6.72 ± 2.19 L/h | efflux of MDR1-mediated rhodamine 123 (hMDR1): concentration-dependent increase | inhibitory effect on MDR1 activity (hMDR1): no inhibitory effect | increase of the antibacterial activity [1]: up to 50% | increase of MDR1 (P-gp) mRNA expression (MDR1 mRNA): 3.56 fold | AUC(0-t) (clinical; [3]): 3.03 ± 0.9 ng·h/mL | AUC(0-t) (clinical; [4]): 3.68 ± 1.15 ng·h/mL | AUC(0-inf) (clinical; [3]): 3.35 ± 0.99 ng·h/mL | AUC(0-inf) (clinical; [4]): 4.4 ± 0.93 ng·h/mL | Cmax (clinical; [3]): 5.88 ± 1.66 ng/mL | Cmax (clinical; [4]): 6.44 ± 2.57 ng/mL | Vd/F (clinical; [3]): 150 ± 54.4 L | Vd/F (clinical; [4]): 149 ± 65.6 L | k el (clinical; [3]): 0.000697 s⁻¹ | k el (clinical; [4]): 0.000569 s⁻¹ | half-life (clinical; plasma, oral, t 1/2, plasma PK-marker, human subjects, multiple doses of PCE (8 g, TID, seven days) + CIP 0.5 g): 18.6 ± 8.4 min | half-life (clinical; plasma, oral, t 1/2, plasma PK-marker, human subjects, single dose of PCE (8 g) + CIP 0.5 g): 25.2 ± 11.4 min | Tmax (clinical; plasma, po): 19.8 min | AUC(0-t) (clinical; [5]): 2.84 ± 0.72 ng·h/mL | AUC(0-inf) (clinical; [5]): 3.39 ± 0.94 ng·h/mL | Vd/F (clinical; [5]): 148 ± 23.9 L | k el (clinical; [5]): 0.000656 s⁻¹ | half-life (clinical; plasma, po, t 1/2, plasma PK-marker, human subjects, oral single dose of PCE (8 g) alone): 19.2 ± 6.6 min | change of net efflux ratio of CIP after co-treatment (Caco-2 cells): significant improvement | increase of BCRP mRNA expression (BCRP mRNA): 3.33 fold | CL/F ([2]; plasma PK-marker, human subjects, multiple doses of PCE (8 g, TID, seven days) + CIP 0.5 g): 5.78 ± 1.57 L/h | C max [2, 6]: 6.07 ± 1.48 ng/mL | CL/F [2, 6]: 5.64 ± 1.45 L/h | CL/F ([2]; plasma PK-marker, human subjects, single dose of PCE (8 g) + CIP 0.5 g): 4.26 ± 0.91 L/h | IC50 (hOCT2): 107 µM

O=C(O)c1cc(O)c(O)c(O)c1 [GA, Gallic acid]
t 1/2 (male, Sprague-Dawley, rat, in vivo, po, 0.72 g/kg): 157 ± 107 min | CL/F (rat, in vivo, po, 0.72 g/kg): 2.06 ± 0.85 L/h | efflux of MDR1-mediated rhodamine 123 (hMDR1): concentration-dependent increase | inhibitory effect on MDR1 activity (hMDR1): no inhibitory effect | Tmax (clinical; in vivo, po): 52.8 min | AUC(0-t) (clinical; in vivo, po): 242 ± 70 ng·h/mL | AUC(0-inf) (clinical; in vivo, po): 248 ± 67 ng·h/mL | Cmax (clinical; in vivo, po): 130 ± 32.7 ng/mL | Vd/F (clinical; in vivo, po): 322 ± 295 L | half-life (clinical; in vivo, po, t 1/2): 98.4 ± 55.2 min | k el (clinical; [3]): 0.000117 s⁻¹ | k el (clinical; [4]): 0.000131 s⁻¹ | k el (clinical; [5]): 0.000142 s⁻¹ | CL/F ([2]; human, in vivo, po): 2.10 ± 0.64 L/h
